Laboratory results published in ChEMBL document CHEMBL5665443, “Enzyme Inhibitor Single Concentration assay results for EUbOPEN Chemogenomics Library” (2024).

How the values were obtained:
Settings in all cases: Hit No
[1] = target: G/T mismatch-specific thymine DNA glycosylase (Homo sapiens) (UniProt Q13569);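 also: human TDG cleavage of quenched duplex DNA oligonucleotides coupled to APE1, strand release read as fluorescence at 594 nm, inhibition of TDG activity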
Description: Inhibition of TDG by quantifying inhibition of TDG-mediated cleavage and dissociation of quenched duplex DNA oligonucleotides, measured as fluorescence at 594 nm. To generate a functional strand incision and increase turn-over this assay is coupled to APE1.

[2] = target: T1, Endonuclease 8-like 2 (Homo sapiens) (UniProt Q969S2);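 also: fluorescence at 594 nm reports NEIL2 cutting and release of a quenched double-stranded DNA oligo substrate, reduced signal read as inhibition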
T1 sequence (whole entry): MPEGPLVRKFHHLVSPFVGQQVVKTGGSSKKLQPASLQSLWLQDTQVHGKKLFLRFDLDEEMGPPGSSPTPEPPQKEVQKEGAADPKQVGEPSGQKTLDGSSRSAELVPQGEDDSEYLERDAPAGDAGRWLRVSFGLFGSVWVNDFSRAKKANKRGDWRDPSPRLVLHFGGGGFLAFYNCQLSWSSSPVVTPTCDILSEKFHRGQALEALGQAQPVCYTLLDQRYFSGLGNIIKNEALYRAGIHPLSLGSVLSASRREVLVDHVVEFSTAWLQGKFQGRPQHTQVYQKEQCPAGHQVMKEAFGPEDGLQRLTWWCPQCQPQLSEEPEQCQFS
Description: Inhibition of NEIL2 by quantifying inhibition of NEIL2-mediated cleavage and dissociation of quenched duplex DNA oligonucleotides, measured as fluorescence at 594 nm.

[3] = target: N-glycosylase/DNA lyase (Homo sapiens) (UniProt O15527);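 also: OGG1 cleavage of a quenched duplex DNA oligonucleotide, coupled to APE1 for strand incision, read as fluorescence at 594 nm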
Description: Inhibition of OGG1 by quantifying inhibition of OGG1-mediated cleavage and dissociation of quenched duplex DNA oligonucleotides, measured as fluorescence at 594 nm. To generate a functional strand incision and increase turn-over this assay is coupled to APE1.

[4] = target: Uracil-DNA glycosylase (Homo sapiens) (UniProt P13051);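 also: UNG excision on a quenched double-stranded DNA oligo probe, with APE1 added for strand incision and turnover, read as fluorescence at 594 nm as strands separate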
Description: Inhibition of UNG by quantifying inhibition of UNG-mediated cleavage and dissociation of quenched duplex DNA oligonucleotides, measured as fluorescence at 594 nm. To generate a functional strand incision and increase turn-over this assay is coupled to APE1.

[5] = target: Methyl-CpG-binding domain protein 4 (Homo sapiens) (UniProt O95243);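 also: MBD4 activity read as fluorescence at 594 nm from cleavage and release of a quenched duplex DNA oligonucleotide, with APE1 coupled to incise the strand and raise turnover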
Description: Inhibition of MBD4 by quantifying inhibition of MBD4-mediated cleavage and dissociation of quenched duplex DNA oligonucleotides, measured as fluorescence at 594 nm. To generate a functional strand incision and increase turn-over this assay is coupled to APE1.

[6] = target: T2, Adenine DNA glycosylase (Homo sapiens) (UniProt Q9UIF7);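 also: human MUTYH activity read as 594 nm fluorescence from cleavage and release of a quenched DNA duplex, coupled with APE1 for strand incision, lower signal meaning inhibition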
T2 sequence (whole entry): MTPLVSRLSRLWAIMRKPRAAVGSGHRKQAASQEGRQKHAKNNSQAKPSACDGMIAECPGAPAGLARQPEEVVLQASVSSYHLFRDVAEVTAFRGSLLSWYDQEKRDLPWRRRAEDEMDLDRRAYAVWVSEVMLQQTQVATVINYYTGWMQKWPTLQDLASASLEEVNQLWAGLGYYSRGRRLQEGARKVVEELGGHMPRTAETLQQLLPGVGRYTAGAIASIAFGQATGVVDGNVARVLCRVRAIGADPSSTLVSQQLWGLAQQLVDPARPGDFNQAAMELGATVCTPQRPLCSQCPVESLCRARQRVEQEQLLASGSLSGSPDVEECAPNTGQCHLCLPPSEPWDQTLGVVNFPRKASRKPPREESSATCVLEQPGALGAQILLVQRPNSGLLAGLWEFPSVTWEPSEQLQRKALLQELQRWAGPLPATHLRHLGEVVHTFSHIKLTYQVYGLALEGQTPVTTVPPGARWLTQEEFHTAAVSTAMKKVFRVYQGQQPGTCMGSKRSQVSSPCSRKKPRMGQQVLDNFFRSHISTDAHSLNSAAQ
Description: Inhibition of MUTYH by quantifying inhibition of MUTYH-mediated cleavage and dissociation of quenched duplex DNA oligonucleotides, measured as fluorescence at 594 nm. To generate a functional strand incision and increase turn-over this assay is coupled to APE1.

[7] = target: T3, Single-strand selective monofunctional uracil DNA glycosylase (Homo sapiens) (UniProt Q53HV7);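 also: enzymatic SMUG1 assay coupled with APE1, reading fluorescence at 594 nm released when a quenched double-stranded DNA oligonucleotide substrate is cleaved and separated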
T3 sequence (whole entry): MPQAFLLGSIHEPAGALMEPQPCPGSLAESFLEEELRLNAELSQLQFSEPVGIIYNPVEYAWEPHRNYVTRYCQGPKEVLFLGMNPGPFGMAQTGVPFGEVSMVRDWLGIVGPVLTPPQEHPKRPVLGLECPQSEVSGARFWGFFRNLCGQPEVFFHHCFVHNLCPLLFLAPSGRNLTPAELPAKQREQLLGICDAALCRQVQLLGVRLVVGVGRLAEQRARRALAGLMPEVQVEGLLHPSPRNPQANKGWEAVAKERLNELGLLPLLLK
Description: Inhibition of SMUG1 by quantifying inhibition of SMUG1-mediated cleavage and dissociation of quenched duplex DNA oligonucleotides, measured as fluorescence at 594 nm. To generate a functional strand incision and increase turn-over this assay is coupled to APE1.

[8] = target: Endonuclease 8-like 1 (Homo sapiens) (UniProt Q96FI4);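 also: fluorescence at 594 nm from quenched duplex DNA oligonucleotides released by NEIL1 cleavage and strand separation, reported as reduction of this enzyme activity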
Description: Inhibition of NEIL1 by quantifying inhibition of NEIL1-mediated cleavage and dissociation of quenched duplex DNA oligonucleotides, measured as fluorescence at 594 nm.

[9] = Compound Concentration 10.0 uM, tested as the 2H-labelled form

N-glycosylase/DNA lyase (Homo sapiens), sequence (O15527 whole entry): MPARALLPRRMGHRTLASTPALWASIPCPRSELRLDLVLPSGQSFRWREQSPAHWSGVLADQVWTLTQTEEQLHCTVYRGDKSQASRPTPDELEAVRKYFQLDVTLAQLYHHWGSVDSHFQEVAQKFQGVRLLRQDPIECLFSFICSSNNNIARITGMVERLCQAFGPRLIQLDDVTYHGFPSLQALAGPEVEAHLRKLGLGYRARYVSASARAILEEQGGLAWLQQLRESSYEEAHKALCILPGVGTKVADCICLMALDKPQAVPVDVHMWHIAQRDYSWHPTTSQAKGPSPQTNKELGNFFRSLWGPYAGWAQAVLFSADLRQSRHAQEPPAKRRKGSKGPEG
Endonuclease 8-like 1 (Homo sapiens), sequence (Q96FI4 whole entry): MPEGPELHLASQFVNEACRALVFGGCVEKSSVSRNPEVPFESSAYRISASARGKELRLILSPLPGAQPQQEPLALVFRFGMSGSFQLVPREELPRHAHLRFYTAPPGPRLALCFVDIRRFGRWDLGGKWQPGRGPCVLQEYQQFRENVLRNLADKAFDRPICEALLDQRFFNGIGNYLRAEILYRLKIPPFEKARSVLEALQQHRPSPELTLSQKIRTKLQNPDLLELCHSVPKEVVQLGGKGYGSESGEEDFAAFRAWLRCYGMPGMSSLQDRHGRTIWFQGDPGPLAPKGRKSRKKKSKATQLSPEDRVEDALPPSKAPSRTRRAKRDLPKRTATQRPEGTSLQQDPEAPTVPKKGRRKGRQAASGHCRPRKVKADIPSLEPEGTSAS
Uracil-DNA glycosylase (Homo sapiens), sequence (P13051 whole entry, the tested form may be a part): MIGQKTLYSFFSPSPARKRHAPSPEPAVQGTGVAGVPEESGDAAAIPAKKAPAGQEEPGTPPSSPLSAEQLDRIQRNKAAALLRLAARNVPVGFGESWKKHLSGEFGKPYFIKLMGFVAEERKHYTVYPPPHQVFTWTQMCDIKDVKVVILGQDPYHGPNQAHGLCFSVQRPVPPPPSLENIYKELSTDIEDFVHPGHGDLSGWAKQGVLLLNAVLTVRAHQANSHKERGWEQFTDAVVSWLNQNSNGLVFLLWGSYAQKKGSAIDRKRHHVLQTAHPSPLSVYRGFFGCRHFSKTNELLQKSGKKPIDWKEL
Methyl-CpG-binding domain protein 4 (Homo sapiens), sequence (O95243 whole entry, the tested form may be a part): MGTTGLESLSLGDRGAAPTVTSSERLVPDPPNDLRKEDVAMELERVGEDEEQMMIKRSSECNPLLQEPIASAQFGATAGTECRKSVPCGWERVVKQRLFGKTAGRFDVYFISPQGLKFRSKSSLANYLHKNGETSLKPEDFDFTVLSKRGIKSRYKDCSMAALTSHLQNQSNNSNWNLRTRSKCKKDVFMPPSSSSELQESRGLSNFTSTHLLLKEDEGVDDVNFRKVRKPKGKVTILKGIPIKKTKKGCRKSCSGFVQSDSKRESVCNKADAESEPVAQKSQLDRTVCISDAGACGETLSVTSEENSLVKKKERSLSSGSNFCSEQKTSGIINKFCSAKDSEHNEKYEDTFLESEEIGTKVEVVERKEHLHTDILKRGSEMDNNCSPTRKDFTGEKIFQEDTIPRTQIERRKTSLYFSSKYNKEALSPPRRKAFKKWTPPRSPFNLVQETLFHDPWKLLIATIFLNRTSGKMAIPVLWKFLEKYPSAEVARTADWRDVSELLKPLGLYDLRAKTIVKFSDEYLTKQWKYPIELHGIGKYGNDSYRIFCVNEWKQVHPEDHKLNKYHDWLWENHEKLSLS
G/T mismatch-specific thymine DNA glycosylase (Homo sapiens), sequence (Q13569 whole entry): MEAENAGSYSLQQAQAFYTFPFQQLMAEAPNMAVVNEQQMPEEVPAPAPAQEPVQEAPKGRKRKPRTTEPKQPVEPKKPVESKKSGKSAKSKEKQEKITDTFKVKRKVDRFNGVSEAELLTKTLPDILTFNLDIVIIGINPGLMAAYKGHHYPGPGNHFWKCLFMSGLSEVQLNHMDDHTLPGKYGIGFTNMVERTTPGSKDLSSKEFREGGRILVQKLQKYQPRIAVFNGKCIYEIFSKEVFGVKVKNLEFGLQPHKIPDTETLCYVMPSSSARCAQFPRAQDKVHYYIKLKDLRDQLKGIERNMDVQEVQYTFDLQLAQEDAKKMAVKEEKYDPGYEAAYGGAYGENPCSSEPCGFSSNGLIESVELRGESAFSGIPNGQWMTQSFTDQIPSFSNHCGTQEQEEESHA

| SMILES | inhibition ([1]; Compound Concentration 1.0 uM) [%] | inhibition ([4]; Compound Concentration 1.0 uM) [%] | inhibition ([5]; Compound Concentration 1.0 uM) [%] | inhibition ([6]; Compound Concentration 1.0 uM) [%] | inhibition ([7]; Compound Concentration 1.0 uM) [%] | inhibition ([1]; Compound Concentration 10.0 uM) [%] | inhibition ([2]; Compound Concentration 10.0 uM) [%] | inhibition ([3]; Compound Concentration 10.0 uM) [%] | inhibition ([5]; Compound Concentration 10.0 uM) [%] | inhibition ([6]; Compound Concentration 10.0 uM) [%] | inhibition ([7]; Compound Concentration 10.0 uM) [%] | inhibition ([4]; Compound Concentration 10.0 uM) [%] | also measured |
| --- | --- | --- | --- | --- | --- | --- | --- | --- | --- | --- | --- | --- | --- |
| Cc1nc(-c2cn3c(n2)-c2ccc(-c4cnn(C(C)(C)C(N)=O)c4)cc2OCC3)n(C(C)C)n1 | 60 | 0.537 | -2.34 | 3.04 | 19.2 | – | – | – | – | – | – | – | inhibition ([2]; Compound Concentration 1.0 uM): -7.57%; inhibition ([3]; Compound Concentration 1.0 uM): 1.09% |
| CC1(C)Cn2nc(-c3ccc(F)cn3)c(-c3ccnc4[nH]ncc34)c2CO1 | – | – | – | – | – | – | – | – | – | – | – | – | inhibition [1, 9]: 99.8%; inhibition [2, 9]: -8.4%; inhibition [3, 9]: -6.31%; inhibition [4, 9]: 0.65%; inhibition [5, 9]: 55.2%; inhibition [6, 9]: -5.13%; inhibition [7, 9]: 12.7% |
| Cc1c(OCc2cccc(-c3ccc(C(=O)O)cc3)c2)cc2c(c1C)C(=O)C(C1CCCC1)C2 (configuration not stated) | – | – | – | – | – | -4.78 | -2.23 | 0.771 | -8.74 | -1.13 | -3.76 | – | inhibition ([8]; Compound Concentration 10.0 uM): -5.54% |
| Cc1c(NC(=O)c2cc(C(N)=O)nc3cc(F)ccc23)c(C(F)(F)F)nn1Cc1ccc(C(C)(C)C)cc1 | 55.8 | 0.116 | 59.5 | 11.6 | 16.4 | – | – | – | – | – | – | – | inhibition ([3]; Compound Concentration 1.0 uM): -8.67%; inhibition ([8]; Compound Concentration 1.0 uM): -8.32% |
| CCS(=O)(=O)c1cc2cc(C[C@@](O)(CC(C)(C)c3ccc(F)cc3C(N)=O)C(F)(F)F)[nH]c2cn1 | 28.1 | -1.88 | 66.5 | -2.67 | 5.35 | – | – | – | – | – | – | – | inhibition ([2]; Compound Concentration 1.0 uM): -6.61%; inhibition ([3]; Compound Concentration 1.0 uM): -3.12% |
| Cc1cnc(-c2cc(Cl)ccc2F)cc1-n1c(=O)n(CC(N)=O)c2ccccc21 | – | – | – | – | – | 23.2 | – | -7.14 | 36.9 | -6.05 | 7.03 | 1.32 | inhibition ([8]; Compound Concentration 10.0 uM): -5.78% |
| C[C@@H](NC(=O)Nc1cc2[nH]ncc2c(CO)n1)c1ccccc1 | – | – | – | – | – | 70.5 | -3.37 | 4.45 | 29.7 | 3.93 | 21.2 | 3.78 | – |
| O=C(Cc1ccccc1)Nc1nnc(N2C[C@H]3C[C@@H]2CN3c2cccnn2)s1 | 47.1 | 2.12 | 62 | -1.58 | 13.8 | – | – | – | – | – | – | – | inhibition ([3]; Compound Concentration 1.0 uM): 0.672%; inhibition ([8]; Compound Concentration 1.0 uM): 2.13% |
| CCC(=O)N[C@H]1CC[C@@H](C(=O)N(C)c2ccc(-c3nc4ccccc4o3)cc2)C1 | – | – | – | – | – | 41.7 | 8.7 | -8.13 | 62.4 | 8.31 | 9.01 | -2.88 | – |
| O=C(Nc1ccc(-c2ccnc(Nc3ccc(N4CCOCC4)cc3)n2)cc1)[C@@H]1CCCN1 | 58.2 | 3.18 | -0.777 | 14.9 | 24.9 | – | – | – | – | – | – | – | inhibition ([3]; Compound Concentration 1.0 uM): 1.3%; inhibition ([8]; Compound Concentration 1.0 uM): 5.95% |
| O=C(NCc1ncc(C(F)(F)F)cc1Cl)c1ccc2c(c1)C1(CCS(=O)(=O)CC1)[C@H](C1CC1)N2S(=O)(=O)c1ccc(F)cc1 | 38.8 | -0.35 | 59.6 | 2.13 | -4 | – | – | – | – | – | – | – | inhibition ([2]; Compound Concentration 1.0 uM): -0.744%; inhibition ([3]; Compound Concentration 1.0 uM): -6.07% |
| Cc1ccc(Cn2nc(C(=O)N[C@@H]3C(C)(C)[C@@H]4CC[C@@]3(C)C4)cc2-c2ccc(Cl)c(C)c2)cc1 | – | – | – | – | – | 21.7 | 7 | -0.971 | -2.75 | -0.363 | -0.0818 | – | inhibition ([8]; Compound Concentration 10.0 uM): 10.9% |
| CC(=O)C1=C(C)N(c2cccc(C(F)(F)F)c2)C(=O)N[C@H]1c1ccc(C#N)nc1 | – | – | – | – | – | 45.5 | 6.4 | -1.74 | 60.5 | -5.95 | 10.2 | -0.968 | – |
| N#Cc1ccc(Nc2ccc3[nH]c(=O)[nH]c3c2)c(Cl)c1 | 38.3 | 1.6 | 63.1 | 7.43 | 11.9 | – | – | – | – | – | – | – | inhibition ([3]; Compound Concentration 1.0 uM): -3.21% |
| CCO[C@@H](Cc1ccc(OCCc2ccc(OS(C)(=O)=O)cc2)cc1)C(=O)O | – | – | – | – | – | 43.6 | -6.87 | 7.36 | 65.1 | -4.86 | 20.9 | 1.73 | – |
| COc1cc2c(CCNC(C)=O)c[nH]c2cc1Cl | – | – | – | – | – | 4.32 | 0.0156 | -6.18 | 5.14 | -5.23 | 0.936 | – | inhibition ([8]; Compound Concentration 10.0 uM): -9.99% |
| CC(C)(O)c1cncc(-c2nc3ccc(F)cc3n2C2CC2)c1 | – | – | – | – | – | 50.2 | – | 8.25 | 59.6 | 11.5 | 1.08 | -3.32 | – |
| COc1cc2c(cc1CC=C(C)C)C(=O)C[C@@H](c1ccc(O)cc1)O2 | – | – | – | – | – | 49.3 | -5.59 | 19.1 | 61.9 | -5.24 | 19.4 | 0.826 | – |
| O=C(Nc1cccnn1)N1CC(C/C=C/c2cncc(Oc3ccc(C(F)(F)F)cn3)n2)C1 | – | – | – | – | – | 97.9 | – | -7.39 | 63.3 | -2.62 | 18.1 | -1.71 | – |
| CCCn1c(=O)c2[nH]c(-c3cnn(Cc4cccc(C(F)(F)F)c4)c3)nc2n(CC)c1=O | – | – | – | – | – | -4.73 | -0.234 | -1.7 | -7.87 | -1.26 | 4.62 | – | inhibition ([8]; Compound Concentration 10.0 uM): -6.43% |
| Clc1cccc(COc2cncc(N3CCNCC3)n2)c1 | – | – | – | – | – | -5.02 | 1.26 | – | -8.79 | 5.27 | 1.71 | -8.45 | inhibition ([8]; Compound Concentration 10.0 uM): 5.13% |
| CCc1cccc(CC)c1NC(=O)c1nn(C)c2c1CCc1cnc(Nc3ccc(C(=O)NC4CCN(C)CC4)cc3OC(F)(F)F)nc1-2 | – | – | – | – | – | 38.9 | 13.7 | – | 12.9 | -6.43 | 13.4 | 2.73 | inhibition ([8]; Compound Concentration 10.0 uM): 2.12% |
| NC(=O)c1ccc2nc(-c3ccc(C4(N)CCC4)cc3)c(-c3ccccc3)n2n1 | 71.4 | 3.74 | 31.7 | 26.6 | 21.7 | – | – | – | – | – | – | – | inhibition ([2]; Compound Concentration 1.0 uM): -7.61%; inhibition ([3]; Compound Concentration 1.0 uM): 4.13% |
| Cn1nc(C(F)(F)F)cc1-c1cnc(N2CCc3cc(S(=O)(=O)Nc4c(F)cc(Cl)cc4F)cc(N4CCCC4=O)c32)nc1 | – | – | – | – | – | 53.9 | 4.87 | 12.6 | 59.5 | 17.9 | 9.91 | 1.37 | – |
| C(#Cc1cccc(CN2CCOCC2)c1)CCN1CCCCC1 | – | – | – | – | – | -1.72 | -2.73 | -4.46 | 0.0339 | -3.69 | -7.54 | – | inhibition ([8]; Compound Concentration 10.0 uM): 11.2% |
| CN([C@@H]1CCc2c(CC(=O)O)c3cc(S(C)(=O)=O)ccc3n2C1)S(=O)(=O)c1ccc(F)cc1 | – | – | – | – | – | 46 | – | -10 | 53.8 | -3.16 | 11.2 | 2.31 | – |
| CN(c1ccnc(CNc2nc(Nc3ccc4c(c3)CC(=O)N4)ncc2C(F)(F)F)n1)S(C)(=O)=O | 72 | 0.644 | 26.2 | 1.9 | 15.5 | – | – | – | – | – | – | – | inhibition ([2]; Compound Concentration 1.0 uM): -6.14%; inhibition ([8]; Compound Concentration 1.0 uM): 1.52% |
| CC(C)c1cc(Nc2nc(N3CCC[C@H](N)C3)ncc2C(N)=O)cc(C(C)C)n1 | 25.2 | 1.59 | -6.11 | 0.673 | 11.3 | – | – | – | – | – | – | – | inhibition ([2]; Compound Concentration 1.0 uM): 11.5%; inhibition ([8]; Compound Concentration 1.0 uM): -3.69% |
